Strand notation (5' to 3'): a small letter for the sugar, then the base; units joined by * are phosphorothioate-linked, units joined directly phosphodiester-linked; [ ] holds rarer units or linkages, { } end groups; capitals alone tell only the bases. e = 2'-O-(2-methoxyethyl) (MOE); [5mC] = 5-methylcytosine; d = 2'-deoxy (DNA)
Columns and labels:
Format in all cases: cell-based
[1] = system: human Factor 11 mRNA; assay: Dose-dependent antisense inhibition of human Factor 11 in HepG2 cells, lipofectin 9.375-150 nM (Example 2); conditions: ~16 h
Method: Cells were plated at a density of 10,000 cells per well and transfected using lipofectin reagent with 9.375 nM, 18.75 nM, 37.5 nM, 75 nM, and 150 nM concentrations of antisense oligonucleotide, as specified in Table 3. After a treatment period of approximately 16 hours, RNA was isolated from the cells and Factor 11 mRNA levels were measured by quantitative real-time PCR. Human Factor 11 primer probe set RTS 2966 (forward sequence: […], incorporated herein as SEQ ID NO: 3; reverse sequence: […], incorporated herein as SEQ ID NO: 4; probe sequence: TTGTCTACTGAAGCACACCCAAACAGGGAX, incorporated herein as SEQ ID NO: 5) was used to measure mRNA levels. Factor 11 mRNA levels were adjusted according to total RNA content, as measured by RIBOGREEN. Results are presented as percent inhibition of Factor 11, relative to untreated control cells.

[2] = system: human Factor 11 mRNA; assay: Antisense inhibition of human Factor 11 in HepG2 cells by microwalk gapmers, lipofectin, 75 nM (Example 3)
How it was run: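 HepG2 cells (10,000/well) were transfected via lipofectin with 75 nM 20-mer MOE gapmers (phosphorothioate, 5-methyl-C) for about 24 h. Factor 11 mRNA was measured by qRT-PCR, normalized to RIBOGREEN total RNA, and given as percent inhibition versus untreated cells.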

[3] = system: human Factor 11 mRNA; assay: Antisense inhibition of human Factor 11 in HepG2 cells, lipofectin, 75 nM (Example 1); conditions: 75 nM antisense oligonucleotide, ~24 h, relative to untreated control cells, gapmers targeted to SEQ ID NO: 1
How it was run: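 HepG2 cells transfected via lipofectin with 75 nM antisense oligonucleotide (5-10-5 MOE gapmers, 20-mers, phosphorothioate, 5-methylcytidines), treated ~24 h. Factor 11 mRNA quantified by real-time PCR, normalised to RIBOGREEN total RNA; percent inhibition versus untreated cells.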

[4] = system: human Factor 11 mRNA; assay: Dose-dependent inhibition of human Factor 11 in HepG2 cells, electroporation 0.7-20 uM (Example 4); conditions: for percent inhibition of Factor 11 at 0.7 μM / percent inhibition of Factor 11 at 2.2 μM / percent inhibition of Factor 11 at 6.7 μM / percent inhibition of Factor 11 at 20 μM: relative to untreated control cells
How it was run: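 HepG2 cells electroporated with antisense gapmers at 0.7, 2.2, 6.7 and 20 μM, treated ~16 h. Factor 11 mRNA quantified by qRT-PCR (primer probe set RTS 2966), normalised to RIBOGREEN total RNA; expressed as percent inhibition versus untreated control cells.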

[5] = system: human Factor 11 mRNA; assay: Dose-dependent inhibition of human Factor 11 in HepG2 cells, lipofectin 9.375-75 nM (Example 4); conditions: for percent inhibition of Factor 11 at 9.375 nM / percent inhibition of Factor 11 at 18.75 nM / percent inhibition of Factor 11 at 37.5 nM / percent inhibition of Factor 11 at 75 nM: relative to untreated control cells
How it was run: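 HepG2 cells transfected via lipofectin with antisense oligonucleotide at 9.375, 18.75, 37.5 or 75 nM for about 16 h. Factor 11 mRNA quantified by real-time RT-PCR (primer probe set RTS 2966) and normalized to total RNA (RIBOGREEN). Results expressed as percent inhibition versus untreated cells.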

[6] = system: human Factor 11 mRNA; assay: Dose-dependent inhibition of human Factor 11 in HepG2 cells, electroporation 123.46-10,000 nM (Example 31); conditions: for Percent inhibition of Factor 11 mRNA at 123.47 nM / Percent inhibition of Factor 11 mRNA at 370.37 nM / IC50: electroporation; for Percent inhibition of Factor 11 mRNA at 123.47 nM / Percent inhibition of Factor 11 mRNA at 370.37 nM / Percent inhibition of Factor 11 mRNA at 1,111.11 nM / Percent inhibition of Factor 11 mRNA at 3,333.33 nM / Percent inhibition of Factor 11 mRNA at 10,000.0 nM: approx. 16 hours, relative to untreated control cells; for Percent inhibition of Factor 11 mRNA at 1,111.11 nM: electroporation, 1,111.11 nM; for Percent inhibition of Factor 11 mRNA at 3,333.33 nM: electroporation, 3,333.33 nM; for Percent inhibition of Factor 11 mRNA at 10,000.0 nM: electroporation, 10,000.0 nM; for IC50: Factor 11 mRNA expression
Method: Cells were plated at a density of 20,000 cells per well and transfected using electroporation with 123.46 nM, 370.37 nM, 1,111.11 nM, 3,333.33 nM and 10,000 nM concentrations of antisense oligonucleotide, as specified in Table 45. After a treatment period of approximately 16 hours, RNA was isolated from the cells and Factor 11 mRNA levels were measured by quantitative real-time PCR. Human Factor 11 primer probe set RTS 2966 was used to measure mRNA levels. Factor 11 mRNA levels were adjusted according to total RNA content, as measured by RIBOGREEN. Results are presented as percent inhibition of Factor 11, relative to untreated control cells.

[7] = system: human Factor 11 mRNA; assay: Antisense inhibition of human Factor 11 in HepG2 cells, electroporation, 8,000 nM (Example 30); conditions: electroporation, 8,000 nM antisense oligonucleotide
Method: These microwalk gapmers were tested in vitro. Cultured HepG2 cells at a density of 20,000 cells per well were transfected using electroporation with 8,000 nM antisense oligonucleotide. After a treatment period of approximately 24 hours, RNA was isolated from the cells and Factor 11 mRNA levels were measured by quantitative real-time PCR. Factor 11 mRNA levels were adjusted according to total RNA content, as measured by RIBOGREEN. Results are presented as percent inhibition of Factor 11, relative to untreated control cells.
The chimeric antisense oligonucleotides in Table 44 were designed as 5-10-5 MOE, 5-8-5 and 6-8-6 MOE gapmers. The first two listed gapmers in Table 44 are the original gapmers (ISIS 416850 and ISIS 416858) from which ISIS 445493-445543 were designed via microwalk, and are designated by an asterisk. The 5-10-5 gapmers are 20 nucleotides in length, wherein the central gap segment is comprised of ten 2′-deoxynucleotides and is flanked on both sides (in the 5′ and 3′ directions) by wings comprising five nucleotides each. The 5-8-5 gapmers are 18 nucleotides in length, wherein the central gap segment is comprised of eight 2′-deoxynucleotides and is flanked on both sides (in the 5′ and 3′ directions) by wings comprising five nucleotides each. The 6-8-6 gapmers are 20 nucleotides in length, wherein the central gap segment is comprised of eight 2′-deoxynucleotides and is flanked on both sides (in the 5′ and 3′ directions) by wings comprising six nucleotides each. For each of the motifs (5-10-5, 5-8-5 and 6-8-6), each nucleotide in the 5′ wing segment and each nucleotide in the 3′ wing segment has a 2′-MOE modification. The internucleoside linkages throughout each gapmer are phosphorothioate (P=S) linkages. All cytidine residues throughout each gapmer are 5-methylcytidines. “Human Target start site” indicates the 5′-most nucleotide to which the gapmer is targeted in the human sequence. “Human Target stop site” indicates the 3′-most nucleotide to which the gapmer is targeted in the human sequence. Each gapmer listed in Table 44 is targeted to SEQ ID NO: 1 (GENBANK Accession No. NM_000128.3). Each gapmer is Table 44 is also fully cross-reactive with the rhesus monkey Factor 11 gene sequence, designated herein as SEQ ID NO: 274 (exons 1-15 GENBANK Accession No. NW_001118167.1). ‘Rhesus monkey start site’ indicates the 5′-most nucleotide to which the gapmer is targeted in the rhesus monkey sequence. ‘Rhesus monkey stop site’ indicates the 3′-most nucleotide to which the gapmer is targeted to the rhesus monkey sequence.

[8] = HepG2, lipofectin, ~24 h, gapmers targeted to nucleobases 656 to 704 of SEQ ID NO: 1
[9] = HepG2 cells, lipofectin, gapmers targeted to nucleobases 1275 to 1318 of SEQ ID NO: 1

| Substance | percent inhibition of Factor 11 at 9.375 nM [1] [%] | percent inhibition of Factor 11 at 18.75 nM [1] [%] | percent inhibition of Factor 11 at 37.5 nM [1] [%] | percent inhibition of Factor 11 at 75 nM [1] [%] | percent inhibition of Factor 11 at 150 nM [1] [%] | IC50 [1] [nM] | % inhibition [2, 8] [%] | % inhibition [3] [%] | IC50 [4] [nM] | percent inhibition of Factor 11 at 0.7 μM [4] [%] | percent inhibition of Factor 11 at 2.2 μM [4] [%] | percent inhibition of Factor 11 at 6.7 μM [4] [%] | percent inhibition of Factor 11 at 20 μM [4] [%] | IC50 [5] [nM] | percent inhibition of Factor 11 at 9.375 nM [5] [%] | percent inhibition of Factor 11 at 18.75 nM [5] [%] | percent inhibition of Factor 11 at 37.5 nM [5] [%] | percent inhibition of Factor 11 at 75 nM [5] [%] | further results |
| --- | --- | --- | --- | --- | --- | --- | --- | --- | --- | --- | --- | --- | --- | --- | --- | --- | --- | --- | --- |
| 412203 (antisense eA*eA*eT*eG*eT*d[5mC]*dT*dT*dT*dG*dT*dT*dG*d[5mC]*dA*eA*eG*e[5mC]*eG*e[5mC]) [compound 412203] | 29 | 15 | 61 | 77 | 82 | 33 | 97 | 91 | 2700 | 11 | 60 | 70 | 91 | 24 | 33 | 40 | 62 | 74 | – |
| 412212 (antisense e[5mC]*e[5mC]*eG*eG*eG*dA*dT*dG*dA*dT*dG*dA*dG*dT*dG*e[5mC]*eA*eG*eA*eT) [compound 412212] | 28 | 45 | 59 | 73 | 88 | 25 | – | 88 | – | – | – | – | – | – | – | – | – | – | % inhibition ([2]; HepG2 cells, lipofectin, gapmers targeted to nucleobases 1018 to 1042 of SEQ ID NO: 1): 89% |
| 413467 (antisense eG*eG*eT*e[5mC]*e[5mC]*dA*d[5mC]*dA*dT*dA*dA*dA*dT*dG*dT*e[5mC]*eT*eT*eT*eG) [compound 413467] | 2 | 35 | 49 | 61 | 47 | 43 | 92 | 91 | 4200 | 5 | 31 | 65 | 89 | 20 | 35 | 51 | 62 | 69 | – |
| 413468 (antisense eG*eT*e[5mC]*eT*eA*dG*dG*dT*d[5mC]*d[5mC]*dA*d[5mC]*dA*dT*dA*eA*eA*eT*eG*eT) [compound 413468] | 14 | 34 | 56 | 78 | 75 | 35 | 83 | 84 | – | – | – | – | – | – | – | – | – | – | – |
| 413469 (antisense eT*eG*e[5mC]*e[5mC]*e[5mC]*dT*dT*d[5mC]*dA*dT*dG*dT*d[5mC]*dT*dA*eG*eG*eT*e[5mC]*e[5mC]) [compound 413469] | 24 | 33 | 53 | 70 | 84 | 33 | 86 | 84 | – | – | – | – | – | – | – | – | – | – | – |
| 413476 (antisense eT*eT*eG*eA*eG*dA*dT*dT*d[5mC]*dT*dT*dT*dG*dG*dG*e[5mC]*e[5mC]*eA*eT*eT) [compound 413476] | 26 | 44 | 64 | 73 | 82 | 25 | – | 88 | 900 | 40 | 69 | 88 | 93 | 21 | 24 | 58 | 62 | 77 | % inhibition ([2]; HepG2 cells, lipofectin, gapmers targeted to nucleobases 1062 to 1091 of SEQ ID NO: 1): 93% |
| 416849 (antisense eG*e[5mC]*eA*e[5mC]*eA*dG*dT*dT*dT*d[5mC]*dT*dG*dG*d[5mC]*dA*eG*eG*e[5mC]*e[5mC]*eT) [compound 416849] | – | – | – | – | – | – | – | – | – | – | – | – | – | – | – | – | – | – | % inhibition [2, 9]: 88%; Percent inhibition of Factor 11 mRNA at 123.47 nM [6]: 5%; Percent inhibition of Factor 11 mRNA at 370.37 nM [6]: 5%; Percent inhibition of Factor 11 mRNA at 1,111.11 nM [6]: 26%; Percent inhibition of Factor 11 mRNA at 3,333.33 nM [6]: 57%; Percent inhibition of Factor 11 mRNA at 10,000.0 nM [6]: 68%; IC50 [6]: 2700 nM; Percent inhibition of human Factor 11 mRNA levels [7]: 88% |
| 416857 (antisense e[5mC]*eG*eG*e[5mC]*eA*dT*dT*dG*dG*dT*dG*d[5mC]*dA*d[5mC]*dA*eG*eT*eT*eT*e[5mC]) [compound 416857] | – | – | – | – | – | – | – | – | – | – | – | – | – | – | – | – | – | – | % inhibition [2, 9]: 92%; Percent inhibition of Factor 11 mRNA at 123.47 nM [6]: 2%; Percent inhibition of Factor 11 mRNA at 370.37 nM [6]: 20%; Percent inhibition of Factor 11 mRNA at 1,111.11 nM [6]: 35%; Percent inhibition of Factor 11 mRNA at 3,333.33 nM [6]: 62%; Percent inhibition of Factor 11 mRNA at 10,000.0 nM [6]: 72%; IC50 [6]: 2300 nM; Percent inhibition of human Factor 11 mRNA levels [7]: 91% |
